Tested on: NLK
Test: NLK expression in differentiating human progenitors (qRT-PCR, Western blot)
Type: cell-based
Design: reduction of NLK protein expression / NLK expression, % of control: concentration or dose not given beside the values
Conditions: for NLK expression, % of control: miRNAs or drugs, single and combined; for reduction of NLK protein expression: metformin
Experimental: FIG. 10. Metformin improves erythropoiesis through suppression of NLK expression. (Panel A) Control (shLuc—grey columns) or RPS19-insufficient (shRPS19-—black columns) progenitors were differentiated in erythroid media alone, vehicle or vehicle containing 50 mM metformin or 5 uM SD208 for 5 days. 5000 cells per treatment were lysed and immunopurified NLK was subjected to in vitro kinase assay to determine phosphorylation potential against 3 recognized NLK substrates; NLK itself (upper), c-Myb (middle) or raptor (bottom). (Panel B) Simultaneously, qRT-PCR was performed to examine NLK (upper) and RPS19 (lower) mRNA expression. (Panel C) Active NLK was purified from activated Kp53A1 cells and subjected to in vitro kinase assay in the presence of 0, 50 nM, 50 μM, or 50 mM metformin or SD208. The phosphorylation of NLK (upper), c-Myb (middle) and raptor (lower) was determined after 30 mins. (Panel D) CD34+ progenitors were transduced with a combination of either shRNA against luciferase (shLuc—grey columns) or RPS19 (shRPS19—black columns) and siRNA against a non-targeting sequence (NT) or NLK (siNLK). After 14 days differentiation in the presence or absence of metformin, cells were counted and the percentage of cells with surface expression of CD235 and CD11b were determined by flow cytometry, to yield the number of CD235+ erythroid (upper) and CD11b+ myeloid (lower) cells. The total number of cells is expressed as a percentage of the number of each cell type in the control (untreated/shLuc/NT). […] Statistics: two-tailed Student's t test, significant *P<0.05
RNA was extracted by using total RNA mini kit (Bio-Rad). RNA was transcribed into cDNA by using the iScript cDNA Synthesis Kit (Bio-Rad). The quantitative RT-PCR (qRT-PCR) reaction was run with iQ SYBR Green MasterMix (Bio-Rad) using the CFX384 Touch Real-Time PCR Detection System (Bio-Rad). 7SL small cytoplasmic RNA14 was used as an internal control. miRNA was quantified using TaqMan® Small RNA Assays (Applied Biosystems) as per manufacturer's directions and normalized to snoRNA. Fold change of mRNA and miRNA was calculated by using the comparative Ct method.
Antibodies against RPS19 (#AB40833; Abcam; 1:200 dilution), NLK (#AB97642; Abcam; 1:1000 dilution) c-Myb (#12319; Cell Signaling; 1;1000 dilution), raptor (#AB26264; Abcam 1;1000 dilution), phosphor-Serine (#525280; Calbiochem; 1:1000 dilution), S6K (#9202; Cell Signaling; 1:500 dilution), and 4E-BP1 (#9452; Cell Signaling; 1:500 dilution), and GAPDH (#MAB374; Millipore; 1:10000) were used according to manufacturer's instructions. The target proteins were analyzed by using SuperSignal® West Pico Chemiluminescent Substrate for horseradish peroxidase (Thermo Scientific). Densitometry was performed using Image J software (http://rsb.info.nih.gov/ij/). When indicated, proteins were co-immunoprecipitated prior to immunoblotting. Cell lysates were normalized for protein before preclearing with Protein A/G Agarose (Upstate) for 30 min, before incubating with indicated antibody overnight. Immune complexes were precipitated with Protein A/G Agarose and separated by SDS-PAGE, before being subjected to immunoblotting.
NLK kinase activity was performed as published (5). For Western blotting, antibodies against NLK (#AB97642; Abcam; 1:1000 dilution) and GAPDH (#MAB374; Millipore; 1:10000) were used according to manufacturer's instructions.
MessengerRNA was quantified as described (5). MicroRNA was quantified using TaqMan® Small RNA Assays (Applied Biosystems) as per manufacturer's directions and normalized to snoRNA.

Row | SMILES | influence on NLK expression (5 uM SD208) | reduction of NLK mRNA expression (RPS19-insufficiency, 50 mM) | reduction of NLK mRNA expression (control, 50 mM) | reduction of NLK protein (differentiating HSPCs, 50 mM) | NLK expression, % of control | NLK expression (RPS19-insufficient and control cells) | reduction of NLK protein expression (RPS19-insufficient cultures) | reduction of NLK protein expression (control cultures)
1 | Fc1ccc(Cl)cc1-c1nc(Nc2ccncc2)c2nccnc2n1 [SD208] | did not significantly influence | – | – | – | – | – | – | –
2 | CC(C)=CCC[C@](C)(O[C@@H]1O[C@H](CO[C@@H]2O[C@H](CO)[C@@H](O)[C@H](O)[C@H]2O)[C@@H](O)[C@H](O)[C@H]1O)[C@H]1CC[C@]2(C)[C@@H]1[C@H](O)C[C@@H]1[C@@]3(C)CC[C@H](O[C@@H]4O[C@H](CO)[C@@H](O)[C@H](O)[C@H]4O[C@@H]4O[C@H](CO)[C@@H](O)[C@H](O)[C@H]4O)C(C)(C)[C@@H]3CC[C@]12C [ginsenoside Rb1] | – | 43.2% | 43.8% | 46.4% | 65.4% | – | – | –
3 | CN(C)C(=N)N=C(N)N [metformin] | – | – | – | – | 40.6% | similarly suppressed | 65.4% | 62.6%
